In US20020110601A1, “Antineoplastic platinum therapeutic method and composition” (priority 2000, published 2002):

Assays:
[1] = system: malignant pleural mesothelioma; experiment: Intrapleural administration in malignant pleural mesothelioma: indwelling catheter versus needle; design: species or system human; conditions: in vivo
Protocol: The first cycle of platinum drug by the present invention was administered 7 days after a baseline thoracoscopy. […] The starting fluid volume infused was 225 ml. Dosages of up to about 450 mg/M^2 are useful, but the empirical end point is compromised respiration such as shortness of breath. […] Repeated administrations were given every 3 to 4 weeks with attention to the presence or absence of a draining pleural effusion without loculation or (adhesions). That is a loculation surrounding the catheter entry must be broken u or carefully drained at the time of additional drug introduction to avoid hydrostatic pressure increases. […] If the fluid was still draining through the indwelling catheter, the patient received a third treatment seven days after the this thoracoscopy. […] While the course of treatment is within the skill of the medical professional with a view to the presenting condition of each patient, some initial parameters are noted. Intrapleural infusion is usefully held between consecutive cycles until the absolute granulocyte count is >1,500/mm^3 and platelets >100,000/mm^3 and complete recovery of non-hematological toxicities.

[2] = in vivo, iv; cited from earlier work
[3] = system: malignant pleural effusions; conditions: human, in vivo
Protocol: A Phase I trial using the procedures of the present invention employed L-NDDP administered by intrapleural administration in patients with malignant pleural effusions.
Therapy began with a starting dose was 75 mg/m^2. […] Four patients were treated at the highest tested dose of 550 mg/m^2.

liposomal-cis-bis-neodecanoato-trans-R,R-1,2-diaminocyclohexane platinum (II) [L-NDDP]
extravasation and sepsis [1]: avoided extravasation and sepsis
dose limiting toxicity [2]: myelosuppression
local pain [3]: no local pain
toxicity [3]: mild nausea and vomiting
systemic toxicity ([3]; iv): No systemic toxicity
